Assay results published in patent US4424226A, “Pyridobenzodiazepinones, pharmaceutical compositions thereof and method of use thereof” (Dr. Karl Thomae GmbH, priority 1982, dated 1984).

Columns and labels:
[1] = Testing for mydriasis (effect on pupil size); details: rat, in vivo, iv; rats; pupil observed 10 minutes
Description: The effect of the test substances on the pupil size in rats was investigated as follows:
The substances were administered intravenously to groups of 10 animals in at least three uniformly graduated doses. The pupil size was then observed for 10 minutes to see if there were any changes (mydriasis or miosis). […] The percentage of test animals in which mydriasis occurred was determined. The ED50 values were again determined during the method of LITCHFIELD and WILCOXON (see above).

[2] = biological target: T1, muscarinic receptors (smooth muscle of the fundus of the stomach) (Rattus norvegicus); experiment: Binding to muscarinic receptors, smooth muscle of the fundus of the stomach (inhibition of specific 3H-NMS binding); design: species or system rat (Sprague-Dawley); details: 0.3 nM 3H-NMS, 45 min, 30° C., pH 7.4, read-out: Receptor Binding Tests IC50, Smooth Muscle Fundus of Stomach
T1 construct: The smooth muscle of the fundus of the stomach was separated from the mucous membrane of the stomach; from tissue; host or cells: smooth muscle of the stomach fundus of male Sprague-Dawley rats, homogenate
Description: (§1) 3. Studies of binding to muscarinic receptors: Determination of the IC50 value
(§2) The organ donors were male Sprague-Dawley rats with a body weight of from about 180 to 220 gm each. After the heart, stomach, and cerebral cortex had been removed, the remainder of the operation was carried out in ice-cold Hepes-HCl buffer (pH 7.4; 100 m molar NaCl, 10 m molar MgCl2). The smooth muscle of the fundus of the stomach was separated from the mucous membrane of the stomach and subjected to preliminary homogenization. The whole heart was cut up with scissors. All the organs were then homogenized in a Potter apparatus.
(§3) For the bonding test, the homogenized organs were diluted as follows:
Smooth muscle of the fundus
(§4) The homogenized organ preparations were incubated at a specific concentration of the radioligand and with a series of concentrations of the non-radioactive test substances in an Eppendorf centrifuge tube at 30° C. The duration of incubation was 45 minutes. The substance 0.3 n molar ^3 H-N-methylscopolamine (^3 H-NMS) was used as the radioligand. After incubation had been brought to an end by centrifuging at 14,000 g, the radioactivity in the pellet was determined. […] The proportion of non-specific bonding was defined as the radioactivity which was bonded in the presence of 1μ molar quinuclidinylbenzylate. […] The IC50 values of the non-labelled test substances were determined graphically. […]

[3] = tested on: muscarinic receptors; experiment: Oxotremorine test: inhibition of oxotremorine-induced secretion of saliva; format: in vivo, rat (female albino, Crl:COBS-CD (SD) BR); details: i.v., 15 min before oxotremorine 0.083 mg/kg i.v.; rats
Description: (§5) Oxotremorine, a specific agonist for muscarinic receptors produces lesions in the mucous membrane of the stomach in rats and increases their secretion of saliva. This test method was chosen so that any selective activity of an antimuscarinic substance on the stomach could be identified.
(§6) Ten female albino rats (of the Crl:COBS-CD (SD) BR strain) with a body weight of from 120 to 150 gm apiece were used in each treatment group and were kept without food for 24 hours before the start of the test but given free access to drinking water.
(§7) To determine, in preliminary tests, the muscarinic effect of oxotremorine on each of the symptoms studied, a dosage/activity curve was drawn up with at least three dosages for each symptom.
(§8) When the antimuscarinic substances were tested, the dosage of oxotremorine which triggered the symptom in question in 90 to 100% of the animals in the preliminary tests was used.
Secretion of saliva 0.083 mg/kg i.v.
Each antimuscarinic substance was administered intravenously in uniformly graduated doses 15 minutes before the oxotremorine was administered. Control groups were given corresponding quantities of the solvent and suspension agent instead of the test substance. […]
(§9) The ED50 values were determined using the method described by Litchfield and Wilcoxon (J. Pharmacol. Exp. Ther. 96, 99, 1949).

[4] = biological target: T2, muscarinic receptors (heart) (Rattus norvegicus, UniProt P10980); experiment: Binding to muscarinic receptors, whole heart (inhibition of specific 3H-NMS binding); design: species or system rat (Sprague-Dawley); details: 0.3 nM 3H-NMS, 45 min, 30° C., pH 7.4, read-out: Receptor Binding Tests IC50, Heart
T2 construct: The whole heart was cut up with scissors; All the organs were then homogenized in a Potter apparatus; from tissue; host or cells: whole heart of male Sprague-Dawley rats, homogenate
T2 sequence (P10980 1-466): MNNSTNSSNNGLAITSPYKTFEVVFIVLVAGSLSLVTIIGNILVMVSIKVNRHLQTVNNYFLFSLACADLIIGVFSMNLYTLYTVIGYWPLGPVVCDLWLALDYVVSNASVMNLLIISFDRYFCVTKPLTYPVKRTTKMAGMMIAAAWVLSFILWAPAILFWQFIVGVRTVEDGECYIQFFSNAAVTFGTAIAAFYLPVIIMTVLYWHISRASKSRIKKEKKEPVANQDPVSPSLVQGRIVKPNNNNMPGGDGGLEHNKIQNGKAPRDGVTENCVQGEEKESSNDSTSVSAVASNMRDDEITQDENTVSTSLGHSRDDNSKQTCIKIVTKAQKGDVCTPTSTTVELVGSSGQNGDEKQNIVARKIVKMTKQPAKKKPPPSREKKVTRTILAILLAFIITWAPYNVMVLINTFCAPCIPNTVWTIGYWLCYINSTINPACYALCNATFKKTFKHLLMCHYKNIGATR
Description: as §1, §2, §3, §4

[5] = biological target: muscarinic receptors (cerebral cortex); experiment: Binding to muscarinic receptors, cerebral cortex (inhibition of specific 3H-NMS binding); design: species or system rat (Sprague-Dawley); details: 0.3 nM 3H-NMS, 45 min, 30° C., pH 7.4, read-out: Receptor Binding Tests IC50, Cortex
Description: as §1, §2, §3, §4

[6] = tested on: muscarinic receptors; experiment: Oxotremorine test: protection against oxotremorine-induced lesions in the mucous membrane of the stomach; format: in vivo, rat (female albino, Crl:COBS-CD (SD) BR); details: i.v.; rats; oxotremorine 0.62 mg/kg i.v. after neostigmine 1 mg/kg oral; % animals without lesions
Description: as §5, §6, §7, §8
Each antimuscarinic substance was administered intravenously in uniformly graduated doses 15 minutes before the oxotremorine was administered. Control groups were given corresponding quantities of the solvent and suspension agent instead of the test substance. Immediately after the oxotremorine was administered, the animals were placed in a glass case for 15 minutes and observed.
as §9
The effects on lesions of the mucous membrane of the stomach were evaluated as follows:
The lesions of the gastric mucous membrane were produced by intravenous injection of 0.62 mg/kg of oxotremorine 30 minutes after the oral administration of 1 mg/kg of neostigmine (a cholinesterase inhibitor). […] The protective effect of the test substances was expressed as the percentage inhibition (percentage of animals without lesions). The ED50 and ED70 values were determined using the method of LITCHFIELD and WILCOXON (see above).

CN1CC=C(CC(=O)N2c3ccccc3C(=O)Nc3cccnc32)CC1 [A, 5,11-dihydro-11-[(1-methyl-1,2,5,6-tetrahydro-4-pyridinyl)acetyl]-6H-pyrido[2,3-b][1,4]benzodiazepin-6-one]
ED50 at 10 min [1]: 0.074 mg/kg | IC50 [2]: 200 nM | Oxotremorine Test, Inhibition of Salivation ED50 [3]: 28 µg/kg | IC50 [4]: 170 nM | IC50 [5]: 50 nM | Oxotremorine Test, Anti-ulcerative Effect ED50 [6]: 1.1 µg/kg | Oxotremorine Test, Anti-ulcerative Effect ED70 [6]: 2 µg/kg

CN1[C@@H]2CC[C@H]1C[C@@H](CC(=O)N1c3ccccc3C(=O)Nc3cccnc31)C2 [B, endo-5,11-dihydro-11-[(8-methyl-8-azabicyclo[3.2.1]oct-3-yl)acetyl]-6H-pyrido[2,3-b][1,4]benzodiazepin-6-one]
ED50 at 10 min [1]: 0.22 mg/kg | IC50 [2]: 700 nM | Oxotremorine Test, Inhibition of Salivation ED50 [3]: 300 µg/kg | IC50 [4]: 150 nM | IC50 [5]: 50 nM | Oxotremorine Test, Anti-ulcerative Effect ED70 [6]: 37 µg/kg
